Values after ≈ are worked out from the molar mass of the structure shown. Where two headings read alike, the source gives them in different places.
What was measured:
[1] = test system: E. coli ATCC 25922; assay: Broth microdilution MIC, E. coli ATCC 25922; type: cell-based; details: Escherichia coli
Summary of the method: (§1)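 Broth microdilution MICs followed CLSI methods in cation-supplemented Mueller-Hinton broth, with 2-fold serial compound dilutions. Log-phase cultures grown 3–5 h were added to a starting inoculum of 5×10^5 CFU/mL and incubated 16–20 h at 37 °C. The MIC was read visually as the lowest concentration with no growth.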

[2] = test system: N. gonorrhoeae WHO F; assay: Liquid broth MIC, N. gonorrhoeae WHO F; type: cell-based; details: Neisseria gonorrhoeae; N. gonorrhoeae WHO F, liquid broth; read-out: Minimum Inhibitory Concentration, N. gonorrhoeae WHO F
Summary of the method: (§2)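 Broth microdilution in wild-type strains: colonies from GC agar with 1% Kellogg's supplement suspended in GC broth, inoculated at 5×10^5 CFU/mL into 2-fold compound dilutions. Plates incubated 40-42 hours at 36° C., 5% CO2; MIC read visually as lowest concentration with no growth.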

[3] = test system: N. gonorrhoeae FA1090; assay: Liquid broth MIC, N. gonorrhoeae FA1090; type: cell-based; details: Neisseria gonorrhoeae; N. gonorrhoeae FA1090, liquid broth; read-out: Minimum Inhibitory Concentration, N. gonorrhoeae FA1090
Summary of the method: as §2

[4] = test system: N. gonorrhoeae FA19; assay: Liquid broth MIC, N. gonorrhoeae FA19; type: cell-based; details: Neisseria gonorrhoeae; N. gonorrhoeae FA19, liquid broth; read-out: Minimum Inhibitory Concentration, N. gonorrhoeae FA19
Summary of the method: as §2

[5] = test system: K. pneumoniae 848844; assay: microbe, parasite or virus in culture; type: cell-based, Klebsiella pneumoniae; details: Klebsiella pneumoniae; K. pneumoniae 848844 producing SHV-11 and KPC-2; read-out: MIC K. pneumoniae 848844
Summary of the method: as §1

[6] = molecular target: E. coli PBP3 (Escherichia coli (strain K12), UniProt P0AD68); assay: E. coli PBP3 Bocillin-FL fluorescence polarization competition binding assay
Summary of the method: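 Purified E. coli PBP (1.5 μM final) competed with inhibitor (0-1000 μM) for Bocillin-FL (0.1 μM final) in 50 mM Hepes pH 8.0, 300 mM NaCl, 5% glycerol. Fluorescence polarization (ex 490/em 520 nm) was read continuously for 60 min after Bocillin-FL addition. EC50 was the concentration that reduced Bocillin-FL binding by 50%.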

[7] = ATCC25922, E. coli ATCC 25922, broth microdilution, read-out: MIC E. coli 25922
[8] = fluorescence polarization competition binding with Bocillin-FL, read-out: E. coli K12 PBP3 Potency

Sequence of E. coli PBP3 (P0AD68 whole entry): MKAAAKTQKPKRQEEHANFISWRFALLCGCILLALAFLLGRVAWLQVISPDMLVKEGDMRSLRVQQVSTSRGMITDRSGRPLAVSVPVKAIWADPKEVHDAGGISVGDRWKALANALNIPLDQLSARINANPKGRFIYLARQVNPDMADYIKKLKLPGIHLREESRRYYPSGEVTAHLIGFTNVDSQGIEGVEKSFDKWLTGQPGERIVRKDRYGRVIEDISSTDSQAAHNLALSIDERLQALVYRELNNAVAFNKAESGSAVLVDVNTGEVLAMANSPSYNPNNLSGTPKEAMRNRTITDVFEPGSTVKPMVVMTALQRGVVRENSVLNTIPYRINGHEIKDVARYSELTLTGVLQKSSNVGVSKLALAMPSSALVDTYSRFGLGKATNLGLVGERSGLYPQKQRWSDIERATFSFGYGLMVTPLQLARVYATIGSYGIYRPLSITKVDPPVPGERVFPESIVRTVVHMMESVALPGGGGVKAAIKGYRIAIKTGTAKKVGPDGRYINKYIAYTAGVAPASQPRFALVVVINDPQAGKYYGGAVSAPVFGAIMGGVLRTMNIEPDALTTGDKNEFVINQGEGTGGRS

Row | Compound | MIC [1, 7] [µg/mL] | MIC [2] [µg/mL] | MIC [3] [µg/mL] | MIC [4] [µg/mL] | MIC [5] [µg/mL] | EC50 [6] [µM] | EC50 [6, 8] [µM] | MIC ([1]; ATCC25922, read-out: MIC E. coli 25922) [µg/mL]
1 | CCN1CCN(C(=O)NC(C(=O)N[C@H]2Cc3ccc(F)c(C(=O)O)c3OB2O)c2ccc(S(N)(=O)=O)cc2)C(=O)C1=O (stereo partly drawn) [Example 181, (3R)-3-(2-(4-ethyl-2,3-dioxopiperazine-1-carboxamido)-2-(4-sulfamoylphenyl)acetamido)-7-fluoro-2-hydroxy-3,4-dihydro-2H-benzo[e][1,2]oxaborinine-8-carboxylic acid] | > 128 | 0.25 to 0.5 (≈ 0.413 to 0.826 µM) | 1 to 2 (≈ 1.65 to 3.3 µM) | 4 to 8 (≈ 6.61 to 13.2 µM) | 32 to 64 | 30 to 500 | – | –
2 | NS(=O)(=O)c1ccc(C(NC(=O)N2CCN(CCF)C(=O)C2=O)C(=O)N[C@H]2Cc3ccc(F)c(C(=O)O)c3OB2O)cc1 (stereo partly drawn) [Example 182, (3R)-7-fluoro-3-(2-(4-(2-fluoroethyl)-2,3-dioxopiperazine-1-carboxamido)-2-(4-sulfamoylphenyl)acetamido)-2-hydroxy-3,4-dihydro-2H-benzo[e][1,2]oxaborinine-8-carboxylic acid] | > 128 | 1 to 2 (≈ 1.6 to 3.21 µM) | 1 to 2 (≈ 1.6 to 3.21 µM) | 4 to 8 (≈ 6.42 to 12.8 µM) | > 128 | 30 to 500 | – | –
3 | O=C(O)c1c(F)ccc2c1OB(O)[C@@H](NC(=O)C(NC(=O)N1CCN(CCF)C(=O)C1=O)c1ncc(O)cc1F)C2 (stereo partly drawn) [Example 183, (3R)-7-fluoro-3-(2-(3-fluoro-5-hydroxypyridin-2-yl)-2-(4-(2-fluoroethyl)-2,3-dioxopiperazine-1-carboxamido)acetamido)-2-hydroxy-3,4-dihydro-2H-benzo[e][1,2]oxaborinine-8-carboxylic acid] | 32 to 64 | < 0.125 | 0.25 to 0.5 (≈ 0.432 to 0.863 µM) | 1 to 2 (≈ 1.73 to 3.45 µM) | > 128 | – | < 30 | –
4 | CCN1CCN(C(=O)N[C@H](C(=O)N[C@H]2Cc3ccc(F)c(C(=O)O)c3OB2O)c2ccc(O)c(O)c2Cl)C(=O)C1=O [Example 188, (R)-3-((S)-2-(2-chloro-3,4-dihydroxyphenyl)-2-(4-ethyl-2,3-dioxopiperazine-1-carboxamido)acetamido)-7-fluoro-2-hydroxy-3,4-dihydro-2H-benzo[e][1,2]oxaborinine-8-carboxylic acid] | 32 to 64 | 4 to 8 (≈ 6.75 to 13.5 µM) | 4 to 8 (≈ 6.75 to 13.5 µM) | 16 to 32 (≈ 27 to 54 µM) | 8 to 16 | 30 to 500 | – | –
5 | CCN1CCN(C(=O)N[C@@H](C(=O)N[C@H]2Cc3ccc(F)c(C(=O)O)c3OB2O)c2ccc(O)c(O)c2Cl)C(=O)C1=O [Example 189, (R)-3-((R)-2-(2-chloro-3,4-dihydroxyphenyl)-2-(4-ethyl-2,3-dioxopiperazine-1-carboxamido)acetamido)-7-fluoro-2-hydroxy-3,4-dihydro-2H-benzo[e][1,2]oxaborinine-8-carboxylic acid] | 2 to 4 | 0.25 to 0.5 (≈ 0.422 to 0.844 µM) | 0.25 to 0.5 (≈ 0.422 to 0.844 µM) | 1 to 2 (≈ 1.69 to 3.37 µM) | 2 to 4 | – | < 30 | –
6 | CCN1CCN(C(=O)N[C@@H](C(=O)N[C@H]2Cc3cccc(C(=O)O)c3OB2O)c2ccc(O)c(O)c2Cl)C(=O)C1=O [Example 190, (R)-3-((R)-2-(2-chloro-3,4-dihydroxyphenyl)-2-(4-ethyl-2,3-dioxopiperazine-1-carboxamido)acetamido)-2-hydroxy-3,4-dihydro-2H-benzo[e][1,2]oxaborinine-8-carboxylic acid] | 2 to 4 | 0.25 to 0.5 (≈ 0.435 to 0.87 µM) | 0.25 to 0.5 (≈ 0.435 to 0.87 µM) | 4 to 8 (≈ 6.96 to 13.9 µM) | 0.5 to 1 | 30 to 500 | – | –
7 | CCN1C[C@@H](C)N(C(=O)NC(C(=O)N[C@H]2Cc3cccc(C(=O)O)c3OB2O)c2ncc(O)cc2F)C(=O)C1=O (stereo partly drawn) [Example 191, (3R)-3-(2-((R)-4-ethyl-6-methyl-2,3-dioxopiperazine-1-carboxamido)-2-(3-fluoro-5-hydroxypyridin-2-yl)acetamido)-2-hydroxy-3,4-dihydro-2H-benzo[e][1,2]oxaborinine-8-carboxylic acid] | > 128 | 1 to 2 (≈ 1.79 to 3.59 µM) | 0.25 to 0.5 (≈ 0.449 to 0.897 µM) | 16 to 32 (≈ 28.7 to 57.4 µM) | > 128 | 30 to 500 | – | –
8 | CCN1CCN(C(=O)NC(C(=O)N[C@H]2Cc3ccc(F)c(C(=O)O)c3OB2O)c2ccc(O)c(O)c2Cl)C(O)C1=O (stereo partly drawn) [Example 194, (3R)-3-(2-(2-chloro-3,4-dihydroxyphenyl)-2-(4-ethyl-2-hydroxy-3-oxopiperazine-1-carboxamido)acetamido)-7-fluoro-2-hydroxy-3,4-dihydro-2H-benzo[e][1,2]oxaborinine-8-carboxylic acid] | – | 4 to 8 (≈ 6.73 to 13.5 µM) | 4 to 8 (≈ 6.73 to 13.5 µM) | 4 to 8 (≈ 6.73 to 13.5 µM) | 8 to 16 | 30 to 500 | – | 32 to 64
9 | NS(=O)(=O)c1ccc(C(NC(=O)N2CCN(CCF)C(=O)C2=O)C(=O)N[C@H]2Cc3cccc(C(=O)O)c3OB2O)c(F)c1 (stereo partly drawn) [Example 204, (3R)-3-(2-(2-fluoro-4-sulfamoylphenyl)-2-(4-(2-fluoroethyl)-2,3-dioxopiperazine-1-carboxamido)acetamido)-2-hydroxy-3,4-dihydro-2H-benzo[e][1,2]oxaborinine-8-carboxylic acid] | 32 to 64 | 0.25 to 0.5 (≈ 0.401 to 0.802 µM) | 0.25 to 0.5 (≈ 0.401 to 0.802 µM) | 1 to 2 (≈ 1.6 to 3.21 µM) | > 128 | – | < 30 | –
10 | CCN1CCN(C(=O)NC(C(=O)N[C@H]2Cc3cccc(C(=O)O)c3OB2O)c2nc(N)sc2F)C(=O)C1=O (stereo partly drawn) [Example 205, (3R)-3-(2-(2-amino-5-fluorothiazol-4-yl)-2-(4-ethyl-2,3-dioxopiperazine-1-carboxamido)acetamido)-2-hydroxy-3,4-dihydro-2H-benzo[e][1,2]oxaborinine-8-carboxylic acid] | 2 to 4 | < 0.125 | < 0.125 | < 0.125 | 32 to 64 | – | < 30 | –
11 | CCN1C[C@H](C)N(C(=O)NC(C(=O)N[C@H]2Cc3ccc(F)c(C(=O)O)c3OB2O)c2ccc(O)c(O)c2Cl)C(=O)C1=O (stereo partly drawn) [Example 206, (3R)-3-(2-(2-chloro-3,4-dihydroxyphenyl)-2-((S)-4-ethyl-6-methyl-2,3-dioxopiperazine-1-carboxamido)acetamido)-7-fluoro-2-hydroxy-3,4-dihydro-2H-benzo[e][1,2]oxaborinine-8-carboxylic acid] | 2 to 4 | 0.25 to 0.5 (≈ 0.412 to 0.824 µM) | 0.25 to 0.5 (≈ 0.412 to 0.824 µM) | 4 to 8 (≈ 6.59 to 13.2 µM) | 2 to 4 | – | < 30 | –
12 | CCN1C[C@H](C)N(C(=O)NC(C(=O)N[C@H]2Cc3ccc(F)c(C(=O)O)c3OB2O)c2ncc(O)cc2F)C(=O)C1=O (stereo partly drawn) [Example 208, (3R)-3-(2-((S)-4-ethyl-6-methyl-2,3-dioxopiperazine-1-carboxamido)-2-(3-fluoro-5-hydroxypyridin-2-yl)acetamido)-7-fluoro-2-hydroxy-3,4-dihydro-2H-benzo[e][1,2]oxaborinine-8-carboxylic acid] | 8 to 16 | < 0.125 | 0.25 to 0.5 (≈ 0.435 to 0.869 µM) | 4 to 8 (≈ 6.95 to 13.9 µM) | 32 to 64 | – | < 30 | –
13 | CCN1CCN(C(=O)NC(C(=O)N[C@H]2Cc3cccc(C(=O)O)c3OB2O)c2ccc(S(N)(=O)=O)c(F)c2)C(=O)C1=O (stereo partly drawn) [Example 210, (3R)-3-(2-(4-ethyl-2,3-dioxopiperazine-1-carboxamido)-2-(3-fluoro-4-sulfamoylphenyl)acetamido)-2-hydroxy-3,4-dihydro-2H-benzo[e][1,2]oxaborinine-8-carboxylic acid] | 8 to 16 | < 0.125 | < 0.125 | 1 to 2 (≈ 1.65 to 3.3 µM) | > 128 | 30 to 500 | – | –

From patent US12173018B2, “Penicillin-binding protein inhibitors” (priority 2018, dated 2024)
